From patent US5843983A, “Diphenylethane compounds containing a saturated heterocyclic group, their preparation, and their therapeutic use” (Sankyo Company, Limited, priority 1996, dated 1998) come the findings set out here.

One experiment has as its target serotonin receptors. Description: Receptor-binding experiment. Conditions: rat cerebral cortex membrane, ^3 H-ligand, 30° C., 1 hour; read-out: IC50 (concentration required to inhibit the binding by 50%). The arrangement: species or system Male Wistar rats. On the procedure:
Receptor-binding experiment
The method of Leysen et al. [Mol. Pharmacol., 21, 301-314, (1982)] was employed. Male Wistar rats (body weight 280-320 g) were used in this experiment. The head of each animal was severed, and the cerebral cortex and corpus striatum were excised. These organs were frozen on dry ice and stored at -80° C. until used. Binding to serotonin receptors was examined using the cerebral cortex. To prepare a membrane suspension, the frozen brain tissue was homogenised with 50 mM Tris-HCl buffer (pH 7.7) using Polytron PT-20, and the homogenate was centrifuged at 49,000×gfor 10 minutes. The resulting pellet was suspending in a Tris buffer, centrifuged, and resuspended in Tris buffer. The content of protein in the membrane suspension thus prepared was determined, and adjusted to 0.57 mg/protein/ml with Tris buffer. The membrane suspension was stored at -80° C.
The receptor-binding reaction was started by adding 440 μl of the membrane suspension to a test tube containing 50 μl of ^3 H-ligand and 10 μl of each test compound (dissolved in dimethyl sulfoxide). After incubation at 30° C. for 1 hour, the reaction was terminated by filtration under reduced pressure using a Whatman GF/B glass filter. The filter was washed with ice-cooled Tris buffer (4 ml×2 times). The filter was then treated with ACS-II, and its radioactivity was determined with a liquid scintillation counter. Non-specific binding was determined in the presence of 20 μM atropine. The percent inhibition of receptorbinding was determined from the percent binding in the presence of each test compound. The concentration of each test compound required to inhibit the binding by 50% (IC50) was calculated from the least square regression line.

Experiment [1] has as its system smooth muscle contraction. Description: Vasoconstriction experiment (serotonin-induced contraction of tail artery helical strip). The following applies: rat tail artery strip, 3×10^-6 M serotonin, Tyrode's solution, 37° C.; read-out: IC50 (concentration required to reduce the tension to 50%). Type of experiment: cell-based, Male SD rats. On the procedure: Vasoconstriction experiment
Effects on smooth muscle contraction were examined by the method of Van Neuten et al. [J. Pharmacol. Exp. Ther., 218, 217-230, (1981)]. Male SD rats, each weighing approximately 500 g, were sacrificed by exsanguination, and the tail artery was excised from each animal. Adherent tissues were removed from the artery for preparation of a helical strip of dimensions about 2×20 mm. The strip was suspended in an organ bath kept at 37° C. and containing 10 ml of Tyrode's solution saturated with a mixed gas (95% O2 /5% CO2) and equilibrated for 1 hour before used in the experiment. An initial tension of 0.5 g was loaded on the helical strip, and changes in tension were recorded in an isometric manner via a transducer. 3×10^-6 M of serotonin was added to the bath as a vasoconstriction inducer, and, after stabilisation of the contractile response of the specimen, a test compound was added to the bath so as to increase the level of test compound in the bath progressively, whilst monitoring the tension in the helical strip. 10^-4 M of papaverine was then added. On the assumption that the tension before the addition of each test compound was 100% and that the tension 5 minutes after the addition of papaverine was 0%, the concentration of each test compound required to reduce the tension to 50% (IC50) was calculated from the least square regression line.

The next experiment has as its target T1, squalene synthase (Rattus norvegicus, UniProt Q02769).
T1 construct: The reaction was started by the addition of rat liver microsome suspension; from tissue; host or cells: rat liver microsomes
T1 sequence (Q02769 1-416): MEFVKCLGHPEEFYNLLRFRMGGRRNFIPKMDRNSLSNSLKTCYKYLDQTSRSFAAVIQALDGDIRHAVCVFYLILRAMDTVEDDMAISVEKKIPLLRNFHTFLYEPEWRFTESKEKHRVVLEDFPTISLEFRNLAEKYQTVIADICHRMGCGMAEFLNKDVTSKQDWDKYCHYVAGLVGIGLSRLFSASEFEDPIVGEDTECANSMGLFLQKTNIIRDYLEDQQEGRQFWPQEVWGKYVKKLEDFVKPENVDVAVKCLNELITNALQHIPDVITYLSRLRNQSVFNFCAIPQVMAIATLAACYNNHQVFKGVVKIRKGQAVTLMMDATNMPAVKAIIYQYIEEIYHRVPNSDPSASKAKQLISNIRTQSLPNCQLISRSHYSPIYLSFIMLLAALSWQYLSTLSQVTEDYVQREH
Description: Squalene synthase inhibitory activity. Type of experiment: biochemical. Conditions: rat liver microsome, 10 μM [4-^14 C]-FPP, pH 7.5, 37° C., 20 minutes; read-out: IC50 (50% inhibitory concentration). On the procedure:
Squalene synthase inhibitory activity Squalene synthase inhibitory activity was determined by the method described in U.S. Pat. […] Anal. Biochem. 203, 310 (1992). […] The reaction was started by the addition of rat liver microsome suspension. The reaction solution was then incubated in a thermostat at 37° C. for 20 minutes, after which the reaction was terminated by the addition of 100 μl of a 1:1 by volume mixture of 40% KOH (aqueous potassium hydroxide) and 95% EtOH (aqueous ethanol). The reaction solution thus treated was further heated at 65° C. for 30 minutes, and then cooled. Squalene was extracted with 2 ml of hexane. One milliliter of the resulting hexane layer was mixed with 10 ml of scintillator, and radioactivity was determined using a liquid scintillation counter. The inhibitory activity of each test compound for the enzyme was determined by co-incubation of the sample containing the test compound with the enzyme sample and substrate in the reaction solution.

Counter-ions that a name gives are not always drawn.

With `COc1cccc(CCc2cc(F)ccc2OCC[C@@H]2C[C@@H](O)CN2C)c1` [Example 1, (2R,4R)-2-[2-{4-Fluoro-2-[2-(3-methoxyphenyl)ethyl]phenoxy}ethyl]-4-hydroxy-1-methylpyrrolidine hydrochloride], the IC50 amounted to 1 nM on serotonin receptors and 1.9 nM in experiment [1].

With `CN1C[C@H](O)C[C@H]1CCOc1ccc(F)cc1CCc1ccc(F)cc1` [Example 2, (2R,4R)-2-[2-{4-Fluoro-2-[2-(4-fluorophenyl)ethyl]phenoxy}ethyl]-4-hydroxy-1-methylpyrrolidine hydrochloride], the figures for the IC50 (at serotonin receptors; in experiment [1]) were 0.8 nM and 2 nM, respectively.

In the case of `COc1cc(CCc2cc(F)ccc2OCC[C@@H]2C[C@@H](O)CN2C)ccc1F` [Example 4, (2R,4R)-2-[2-{4-Fluoro-2-[2-(4-fluoro-3-methoxyphenyl)ethyl]phenoxy}ethyl]-4-hydroxy-1-methylpyrrolidine hydrochloride], the IC50 came out at 0.65 nM at serotonin receptors, 1600 nM on squalene synthase and 2.3 nM in experiment [1].

In the case of `O[C@H]1CN[C@H](CCOc2ccc(F)cc2CCc2ccccc2)C1` [Example 5, (2R,4R)-2-{2-[4-Fluoro-2-(2-phenylethyl)phenoxy]ethyl}-4-hydroxypyrrolidinehydrochloride], the IC50 on squalene synthase came to 740 nM.

For the compound `CN1C[C@H](O)C[C@H]1CCOc1ccc(F)cc1CCc1ccccc1` [Example 6, (2R,4R)-2-{2-[4-Fluoro-2-(2-phenylethyl)phenoxy]ethyl}-4-hydroxy-1-methylpyrrolidine hydrochloride], the IC50 at serotonin receptors was 3.4 nM; at squalene synthase, 1100 nM; in experiment [1], 2.2 nM.

In the case of `CN1C[C@H](O)C[C@H]1CCOc1ccc(F)cc1CCc1ccc(F)c(F)c1` [Example 7, (2R,4R)-2-[2-{2-[2-(3,4-Difluorophenyl)ethyl]-4-fluorophenoxy}ethyl]-4-hydroxy-1-methylpyrrolidine hydrochloride], the IC50 is 0.75 nM on serotonin receptors and 2.6 nM in experiment [1].

As to `Cc1ccc(OCC[C@@H]2C[C@@H](O)CN2C)c(CCc2ccccc2)c1` [Example 12, (2R,4R)-4-Hydroxy-1-methyl-2-{2-[4-methyl-2-(2-phenylethyl)phenoxy]ethyl}pyrrolidine hydrochloride], the IC50 on squalene synthase came out at 1500 nM.
